# “Also recorded” adds a separate entry of the source.
# Assays:
# [1] = biological target: purified PKCα (Homo sapiens, UniProt P17252); assay: In vitro peptide binding assay (biotinylated d-peptide, streptavidin capture, blot); conditions: biotinylated d-peptide 0 to 5 μg, PKC lipid activator, 1 hour room temperature
# Description: (§1) Biotinylation of the decoy peptide (d-peptide) was performed using the Thermo Scientific EZ-Link Sulfo-NHS-LC-Biotinylation Kit. Briefly, Sulfo-NHS-LC-Biotin was mixed with d-peptide and the reaction mix was incubated at room temperature for 30 minutes. Different concentrations of the biotinylated d-peptide (0 to 5 μg) mixed with either purified eNOS protein or PKCα protein in a reaction mix containing PKC lipid activator were incubated at room temperature for 1 hour. Protein bound to the biotinylated d-peptide was captured using Thermo Scientific streptavidin agarose column and run on a 10% SDS-PAGE gel under reducing condition. The resulting blots were probed with antibodies to eNOS and PKCα protein respectively. Reactive bands were visualized using chemiluminescence on the LI-COR Odyssey image station.
# [2] = biological target: T1, purified eNOS protein (Homo sapiens, UniProt P29474); assay: as above; conditions: biotinylated d-peptide 0 to 5 μg, 1 hour room temperature
# T1 sequence (P29474 1-1203): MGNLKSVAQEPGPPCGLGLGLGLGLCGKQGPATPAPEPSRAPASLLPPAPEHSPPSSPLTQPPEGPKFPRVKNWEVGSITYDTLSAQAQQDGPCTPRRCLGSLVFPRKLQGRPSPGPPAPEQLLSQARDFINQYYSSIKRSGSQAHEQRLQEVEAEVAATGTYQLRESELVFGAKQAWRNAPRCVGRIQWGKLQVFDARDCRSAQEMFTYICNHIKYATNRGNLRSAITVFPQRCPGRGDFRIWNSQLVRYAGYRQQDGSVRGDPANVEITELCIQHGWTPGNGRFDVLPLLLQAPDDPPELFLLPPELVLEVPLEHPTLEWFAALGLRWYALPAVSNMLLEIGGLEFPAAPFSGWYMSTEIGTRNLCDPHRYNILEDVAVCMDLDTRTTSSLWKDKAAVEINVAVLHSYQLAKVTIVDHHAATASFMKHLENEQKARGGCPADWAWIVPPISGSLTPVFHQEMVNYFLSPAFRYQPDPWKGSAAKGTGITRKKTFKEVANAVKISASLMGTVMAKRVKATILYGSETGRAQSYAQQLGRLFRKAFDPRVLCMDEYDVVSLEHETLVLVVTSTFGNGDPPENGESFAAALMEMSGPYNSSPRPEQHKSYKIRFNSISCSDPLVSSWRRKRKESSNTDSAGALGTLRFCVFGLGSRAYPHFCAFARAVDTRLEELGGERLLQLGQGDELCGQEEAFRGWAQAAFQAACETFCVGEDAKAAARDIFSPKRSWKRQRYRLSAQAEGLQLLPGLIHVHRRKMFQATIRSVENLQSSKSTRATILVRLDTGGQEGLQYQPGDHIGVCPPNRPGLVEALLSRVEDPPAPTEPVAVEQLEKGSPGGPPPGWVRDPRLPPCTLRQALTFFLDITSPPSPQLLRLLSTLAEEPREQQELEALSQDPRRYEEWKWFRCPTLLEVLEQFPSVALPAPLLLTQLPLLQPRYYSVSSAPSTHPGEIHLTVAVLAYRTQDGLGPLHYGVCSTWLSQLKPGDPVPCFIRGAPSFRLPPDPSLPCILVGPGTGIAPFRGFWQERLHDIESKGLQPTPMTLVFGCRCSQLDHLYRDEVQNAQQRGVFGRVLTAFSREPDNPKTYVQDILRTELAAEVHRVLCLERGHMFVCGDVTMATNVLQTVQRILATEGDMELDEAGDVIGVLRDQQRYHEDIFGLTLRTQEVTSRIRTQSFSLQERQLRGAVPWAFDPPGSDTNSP
# Description: as §1
# [3] = tested on: PAEC; assay: Mitochondrial membrane potential (TMRM) in PAEC; format: cell-based, ovine; conditions: 4αPDD 10 μM, 3 h
# Description: (§2) Primary cultures of ovine pulmonary arterial endothelial cells (PAEC) were isolated as described previously (L. K. Kelly, Am J Physiol Lung Cell Mol Physiol, 286(5), L984-91 (2004)). Briefly, cells were maintained in Dulbecco's modified Eagle medium (DMEM) supplemented with 10% fetal calf serum (Hyclone, Logan, UT), antibiotics/antimycotic (500 IU Penicillin, 500 μg/ml Streptomycin, 1.25 μg/ml Amphotericin B; MediaTech, Herndon, VA) at 37° C. in a humidified atmosphere with 5% CO2 and 95% air. Cells were used for experiments between passages 9-14, seeded at ˜50% confluence, and utilized when fully confluent.
# Mitochondrial membrane potential was determined using TMRM (tetramethylrhodamine methyl ester perchlorate, Molecular Probes, Eugene, OR). Briefly, after each experiment, cells were washed with fresh media, incubated in media containing TMRM (50 nM), for 30 min at 37° C. in dark conditions, then subjected to fluorescence microscopy using an excitation of 548 nm and an emission at 575 nm. An Olympus IX51 microscope equipped with a CCD camera (Hamamatsu Photonics) was used for acquisition of fluorescent images and the average fluorescent intensities were quantified using ImagePro Plus version 5.0 imaging software (Media Cybernetics).
# [4] = tested on: PAEC; assay: Mitochondrial bioenergetics (XF24 Analyzer, OCR) in PAEC; format: cell-based, ovine; conditions: 4αPDD
# Description: as §2
# The XF24 Analyzer (Seahorse Biosciences) and XF CELL MITO STRESS™ Test Kit (#101706-100; Seahorse Biosciences) were used for the mitochondrial bioenergetic analyses. The optimum number of cells/well was determined to be 75,000/0.32 cm^2. At the end of each study, the XF24 culture microplates were incubated in a CO2-free XF prep station at 37° C. for 45 min to allow temperature and pH calibration. Subsequently, each well was sequentially injected Oligomycin (1 μM final concentration), carbonyl cyanide 4-(trifluoromethoxy) phenylhydrazone (FCCP, 1 μM final concentration), and Rotenone+antimycin A (1 μM final concentration of each) and measured the oxygen consumption rate (OCR). These agents were used to determine basal mitochondrial respiration, reserve respiratory capacity and maximal respiratory capacity measurements in pmols/min of oxygen consumed.
Molecule,binding to purified PKCα [1],binding to eNOS [2],mitochondrial membrane potential (TMRM) [3],maximum respiratory capacity [4],mitochondrial basal O2 consumption [4],spare respiratory capacity [4]
HRKKRRQRRITRKKTFKEVA [d-peptide],binds efficiently; also recorded: able to bind efficiently to purified PKCα,but not to eNOS,,,,
"CCCCCCCCCC(=O)O[C@@H]1[C@@H](C)[C@@]2(O)[C@@H](C=C(CO)C[C@@]3(O)C(=O)C(C)=C[C@@H]23)[C@@H]2C(C)(C)[C@]12OC(=O)CCCCCCCCC [4αPDD, 4α-Phorbol-12,13 didecanoate]",,,decrease in the mitochondrial membrane potential,reductions,reductions,reductions
